{
  "source": "ChEMBL document CHEMBL1201862",
  "about": "“PubChem BioAssay data set” (2004)",
  "key": {"Coagulation factor XII [1]": {"target": "T1, Coagulation factor XII (Homo sapiens, UniProt P00748)", "T1 sequence (P00748 whole entry)": "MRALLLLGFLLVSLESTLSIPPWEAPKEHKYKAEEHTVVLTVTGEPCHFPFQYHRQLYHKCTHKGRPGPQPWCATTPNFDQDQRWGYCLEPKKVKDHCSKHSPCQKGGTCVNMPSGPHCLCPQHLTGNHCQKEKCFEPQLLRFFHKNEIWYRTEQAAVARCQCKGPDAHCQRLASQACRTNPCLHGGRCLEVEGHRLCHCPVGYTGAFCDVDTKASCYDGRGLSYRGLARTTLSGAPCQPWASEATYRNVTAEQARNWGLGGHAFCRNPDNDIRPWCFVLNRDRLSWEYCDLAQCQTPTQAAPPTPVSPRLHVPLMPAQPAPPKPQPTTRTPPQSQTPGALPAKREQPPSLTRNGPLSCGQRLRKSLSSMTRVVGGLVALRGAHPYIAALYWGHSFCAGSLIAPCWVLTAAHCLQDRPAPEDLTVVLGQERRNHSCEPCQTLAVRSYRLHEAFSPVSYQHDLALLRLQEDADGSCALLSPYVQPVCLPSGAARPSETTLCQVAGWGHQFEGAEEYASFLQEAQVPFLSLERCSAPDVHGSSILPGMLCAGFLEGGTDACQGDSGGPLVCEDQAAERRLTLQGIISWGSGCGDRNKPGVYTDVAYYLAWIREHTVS", "assay": "activated coagulation factor XII inhibitor potency, concentration-effect curve, cell-free (AID 716)", "format": "functional"}, "H4": {"tested_on": "H4", "assay": "Luminescence Cell-Based Dose Response HTS to Identify Activators of 5'UTR Stem-Loop Driven Prion Protein mRNA Translation in H4 Neuroglioblastoma Cells. [Related pubchem assays: 1829 (Project Summary), 1814 (Primary HTS)]", "format": "functional", "details": "Homo sapiens"}, "Coagulation factor XII [2]": {"target": "T1, Coagulation factor XII", "assay": "Factor XIIa Dose Response Confirmation from Single Well HTS. [Related pubchem assays (depositor defined):AID701]", "format": "functional"}, "Streptococcus": {"tested_on": "Streptococcus", "assay": "GAS UMAA2166 growth inhibition – luminescence, BacTiterGlo, counter-screen for streptokinase expression inhibitor project, dose response (AID 1915);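 note: potency for reduction of bacterial viability or growth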", "format": "functional, organism-based"}, "[3]": {"target": "72 kDa type IV collagenase (Homo sapiens, UniProt P08253)", "sequence (P08253 whole entry)": "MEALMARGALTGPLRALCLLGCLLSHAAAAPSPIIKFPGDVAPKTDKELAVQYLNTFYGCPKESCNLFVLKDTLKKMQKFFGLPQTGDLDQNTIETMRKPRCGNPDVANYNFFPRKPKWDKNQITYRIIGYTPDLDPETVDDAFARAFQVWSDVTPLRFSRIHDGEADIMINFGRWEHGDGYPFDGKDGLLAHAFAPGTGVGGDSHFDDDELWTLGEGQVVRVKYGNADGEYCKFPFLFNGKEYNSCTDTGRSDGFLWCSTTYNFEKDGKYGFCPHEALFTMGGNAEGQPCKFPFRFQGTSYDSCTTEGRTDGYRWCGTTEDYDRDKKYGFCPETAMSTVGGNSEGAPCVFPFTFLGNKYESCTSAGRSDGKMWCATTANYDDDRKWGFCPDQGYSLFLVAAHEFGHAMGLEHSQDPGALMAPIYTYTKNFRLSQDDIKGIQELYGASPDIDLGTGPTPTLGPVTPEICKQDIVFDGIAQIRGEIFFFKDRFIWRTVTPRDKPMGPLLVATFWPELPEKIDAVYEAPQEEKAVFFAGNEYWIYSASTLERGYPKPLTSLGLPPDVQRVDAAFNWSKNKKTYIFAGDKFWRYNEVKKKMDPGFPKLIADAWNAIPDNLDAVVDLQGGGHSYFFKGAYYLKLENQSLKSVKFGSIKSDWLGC", "assay": "Dose Response validation of uHTS RPN11 inhibitor hits using a MMP-2 Fluorescence assay.", "format": "functional"}, "Fatty acid synthase [4]": {"target": "T2, Fatty acid synthase (Homo sapiens, UniProt P49327)", "T2 sequence (P49327 whole entry)": "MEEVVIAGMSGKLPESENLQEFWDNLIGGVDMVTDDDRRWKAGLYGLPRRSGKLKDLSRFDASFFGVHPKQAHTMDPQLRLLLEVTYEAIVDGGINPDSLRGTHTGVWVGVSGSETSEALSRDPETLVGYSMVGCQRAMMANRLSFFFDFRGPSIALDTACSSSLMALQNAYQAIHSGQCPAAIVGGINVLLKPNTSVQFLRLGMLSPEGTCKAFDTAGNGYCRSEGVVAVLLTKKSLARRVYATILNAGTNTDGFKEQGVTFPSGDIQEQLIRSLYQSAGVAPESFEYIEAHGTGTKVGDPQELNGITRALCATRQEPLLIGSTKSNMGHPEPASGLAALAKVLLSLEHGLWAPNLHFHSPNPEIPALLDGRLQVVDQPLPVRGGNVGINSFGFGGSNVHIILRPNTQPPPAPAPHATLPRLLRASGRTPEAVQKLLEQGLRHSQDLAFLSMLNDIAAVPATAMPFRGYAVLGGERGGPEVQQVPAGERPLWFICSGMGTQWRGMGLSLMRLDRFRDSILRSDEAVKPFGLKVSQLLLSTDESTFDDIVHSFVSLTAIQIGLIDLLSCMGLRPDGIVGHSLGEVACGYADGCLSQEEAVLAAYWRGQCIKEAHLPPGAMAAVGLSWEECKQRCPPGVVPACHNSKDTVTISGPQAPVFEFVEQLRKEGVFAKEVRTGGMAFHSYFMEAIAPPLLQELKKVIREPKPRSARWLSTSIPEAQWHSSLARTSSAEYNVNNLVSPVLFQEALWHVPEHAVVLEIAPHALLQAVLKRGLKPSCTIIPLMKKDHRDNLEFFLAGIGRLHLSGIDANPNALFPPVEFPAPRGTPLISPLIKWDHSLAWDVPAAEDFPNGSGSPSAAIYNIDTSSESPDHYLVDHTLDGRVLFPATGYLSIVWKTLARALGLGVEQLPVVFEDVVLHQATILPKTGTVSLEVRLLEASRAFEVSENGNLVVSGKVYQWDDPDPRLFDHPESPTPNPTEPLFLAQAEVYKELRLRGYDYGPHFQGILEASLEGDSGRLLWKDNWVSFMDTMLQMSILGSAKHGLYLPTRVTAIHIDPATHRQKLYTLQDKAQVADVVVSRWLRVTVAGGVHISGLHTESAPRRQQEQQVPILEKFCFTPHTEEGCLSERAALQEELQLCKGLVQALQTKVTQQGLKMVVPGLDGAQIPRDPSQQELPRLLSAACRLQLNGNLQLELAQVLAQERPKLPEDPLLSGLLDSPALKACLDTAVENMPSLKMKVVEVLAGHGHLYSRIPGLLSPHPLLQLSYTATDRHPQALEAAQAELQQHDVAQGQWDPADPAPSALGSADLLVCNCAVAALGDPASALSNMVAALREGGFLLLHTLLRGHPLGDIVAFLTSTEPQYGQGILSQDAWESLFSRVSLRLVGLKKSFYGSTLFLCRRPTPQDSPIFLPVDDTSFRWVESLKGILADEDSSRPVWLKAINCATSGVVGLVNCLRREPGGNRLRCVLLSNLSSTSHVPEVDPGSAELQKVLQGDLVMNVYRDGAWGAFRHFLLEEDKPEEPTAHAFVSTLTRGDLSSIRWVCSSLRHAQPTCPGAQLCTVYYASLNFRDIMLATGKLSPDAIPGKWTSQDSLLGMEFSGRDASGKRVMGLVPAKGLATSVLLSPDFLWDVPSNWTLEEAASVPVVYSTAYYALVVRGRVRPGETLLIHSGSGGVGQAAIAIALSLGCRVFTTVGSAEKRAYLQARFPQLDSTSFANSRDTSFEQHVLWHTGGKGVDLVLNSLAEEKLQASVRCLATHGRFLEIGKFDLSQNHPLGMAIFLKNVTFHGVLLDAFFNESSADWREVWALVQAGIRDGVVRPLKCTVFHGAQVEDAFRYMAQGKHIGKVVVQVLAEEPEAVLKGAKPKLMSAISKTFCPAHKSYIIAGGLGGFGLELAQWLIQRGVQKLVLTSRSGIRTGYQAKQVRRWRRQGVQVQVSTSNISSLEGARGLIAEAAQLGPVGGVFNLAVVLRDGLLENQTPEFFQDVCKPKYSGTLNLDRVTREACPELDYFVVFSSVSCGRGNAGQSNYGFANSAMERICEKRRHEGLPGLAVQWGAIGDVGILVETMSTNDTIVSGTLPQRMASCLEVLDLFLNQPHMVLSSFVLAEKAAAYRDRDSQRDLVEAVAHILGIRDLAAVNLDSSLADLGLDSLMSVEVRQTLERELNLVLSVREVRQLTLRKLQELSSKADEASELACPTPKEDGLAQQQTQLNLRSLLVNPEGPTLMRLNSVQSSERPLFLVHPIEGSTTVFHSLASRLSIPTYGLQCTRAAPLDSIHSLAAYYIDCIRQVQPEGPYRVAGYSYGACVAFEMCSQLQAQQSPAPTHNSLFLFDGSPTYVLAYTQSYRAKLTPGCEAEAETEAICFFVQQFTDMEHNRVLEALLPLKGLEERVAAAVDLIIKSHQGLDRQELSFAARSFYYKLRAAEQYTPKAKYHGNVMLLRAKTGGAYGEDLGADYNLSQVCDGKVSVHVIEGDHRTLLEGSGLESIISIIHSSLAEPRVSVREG", "assay": "inhibition of human FAS-TE enzyme activity – biochemical, endpoint fluorescence intensity, uHTS hits, dose response (AID 624327);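 note: fluorescence from hydrolysis of an O-methyl fluorescein acyl ester substrate by the enzyme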", "format": "functional"}, "[5]": {"assay": "Intein inhibitors as potential Tuberculosis drugs, a cytotoxicity screen. [Related pubchem assays (depositor defined):AID2221, AID2223, AID434968, AID435010, AID449749, AID449750, AID489010]", "format": "functional"}, "[6]": {"tested_on": "Streptococcus sp. 'group A'", "assay": "Streptococcus pyogenes SK(-)GAS viability under kanamycin – luminescence, BacTiterGlo, confirmation, counter-screen for streptokinase expression inhibitor project, dose response (AID 1900)", "format": "functional, organism-based"}, "[7]": {"target": "Envelope glycoprotein gp160 (Human immunodeficiency virus 1, UniProt Q6QLK5)", "sequence (Q6QLK5 whole entry, the tested form may be a part)": "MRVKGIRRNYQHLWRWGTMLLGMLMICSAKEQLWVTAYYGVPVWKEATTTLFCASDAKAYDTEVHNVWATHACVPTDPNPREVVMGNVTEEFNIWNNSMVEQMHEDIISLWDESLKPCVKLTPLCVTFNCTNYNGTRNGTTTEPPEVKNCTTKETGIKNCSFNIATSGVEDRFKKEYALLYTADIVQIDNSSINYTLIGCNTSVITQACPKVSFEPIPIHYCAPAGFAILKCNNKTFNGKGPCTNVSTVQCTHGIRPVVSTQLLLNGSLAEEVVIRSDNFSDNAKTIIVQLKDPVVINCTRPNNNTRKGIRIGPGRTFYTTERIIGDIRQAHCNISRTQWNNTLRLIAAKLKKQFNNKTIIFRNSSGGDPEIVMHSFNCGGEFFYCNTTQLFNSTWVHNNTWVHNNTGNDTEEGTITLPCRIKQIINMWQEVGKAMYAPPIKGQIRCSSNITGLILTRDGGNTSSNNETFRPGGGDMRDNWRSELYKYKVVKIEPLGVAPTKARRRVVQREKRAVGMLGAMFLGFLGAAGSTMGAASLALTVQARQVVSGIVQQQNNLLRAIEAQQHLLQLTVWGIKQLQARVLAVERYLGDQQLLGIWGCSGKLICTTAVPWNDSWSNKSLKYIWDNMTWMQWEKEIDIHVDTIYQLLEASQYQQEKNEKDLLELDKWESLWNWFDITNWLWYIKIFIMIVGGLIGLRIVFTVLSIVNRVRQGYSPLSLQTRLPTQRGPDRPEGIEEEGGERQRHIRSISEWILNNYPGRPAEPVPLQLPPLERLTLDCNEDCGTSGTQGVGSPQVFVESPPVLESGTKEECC", "assay": "cell-free HIV fusion peptide-binding blockers – biochemical, uHTS, fluorescence dequenching, […] (AID 1986)"}, "Protein RecA": {"target": "T3, Protein RecA (Mycobacterium tuberculosis, UniProt P9WHJ3)", "T3 sequence (P9WHJ3 whole entry)": "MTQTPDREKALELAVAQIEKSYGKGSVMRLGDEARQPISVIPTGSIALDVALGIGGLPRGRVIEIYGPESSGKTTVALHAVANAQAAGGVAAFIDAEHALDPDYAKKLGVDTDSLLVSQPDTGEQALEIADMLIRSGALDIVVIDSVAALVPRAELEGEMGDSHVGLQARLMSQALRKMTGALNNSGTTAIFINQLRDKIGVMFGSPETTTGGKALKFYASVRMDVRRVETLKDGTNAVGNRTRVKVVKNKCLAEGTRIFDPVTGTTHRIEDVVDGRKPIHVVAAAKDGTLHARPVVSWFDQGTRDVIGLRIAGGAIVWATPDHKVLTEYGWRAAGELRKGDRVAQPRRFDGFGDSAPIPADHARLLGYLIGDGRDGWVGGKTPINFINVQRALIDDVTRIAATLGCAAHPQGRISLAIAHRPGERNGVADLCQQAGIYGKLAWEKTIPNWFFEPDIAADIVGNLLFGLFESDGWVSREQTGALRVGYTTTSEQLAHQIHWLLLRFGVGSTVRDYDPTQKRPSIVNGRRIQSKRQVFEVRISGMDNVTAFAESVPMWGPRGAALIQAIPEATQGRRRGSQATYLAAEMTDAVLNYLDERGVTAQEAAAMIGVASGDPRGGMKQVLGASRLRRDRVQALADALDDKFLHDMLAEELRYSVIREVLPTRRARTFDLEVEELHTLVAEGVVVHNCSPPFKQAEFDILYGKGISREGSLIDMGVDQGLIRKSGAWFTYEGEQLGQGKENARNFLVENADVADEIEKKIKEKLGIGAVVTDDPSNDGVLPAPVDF", "assay": "Fluorescence Cell-Free Homogeneous Dose Retest to Identify Inhibitors of RecA-Intein Splicing Activity. [Related pubchem assays (depositor defined):AID2097, AID2223, AID489010, AID492950]", "format": "functional"}, "Fatty acid synthase [8]": {"target": "T2, Fatty acid synthase", "assay": "inhibition of human FAS-TE enzyme activity – biochemical, kinetic fluorescence intensity, dose response (AID 624326);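 note: rate of fluorescence rise from hydrolysis of a fluorogenic O-methyl fluorescein ester substrate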", "format": "functional"}, "[9]": {"target": "26S proteasome non-ATPase regulatory subunit 14 (Homo sapiens, UniProt O00487)", "sequence (O00487 whole entry)": "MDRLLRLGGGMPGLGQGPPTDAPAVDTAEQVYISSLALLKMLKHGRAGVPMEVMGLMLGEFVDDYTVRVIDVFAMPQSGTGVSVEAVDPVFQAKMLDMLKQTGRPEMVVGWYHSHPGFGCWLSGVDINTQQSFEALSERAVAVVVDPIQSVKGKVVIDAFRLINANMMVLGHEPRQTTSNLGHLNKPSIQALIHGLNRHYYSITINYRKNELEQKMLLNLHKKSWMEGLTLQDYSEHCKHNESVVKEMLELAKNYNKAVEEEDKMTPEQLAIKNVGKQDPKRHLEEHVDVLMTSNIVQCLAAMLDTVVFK", "assay": "inhibition of proteasome subunit RPN11 – biochemical, fluorescence polarization, uHTS hits, confirmation (AID 602368)", "format": "functional"}, "[10]": {"assay": "CCR5-tropic HIV-1 fusion blockers – cell-based, CCR5-tropic Env, dose response (AID 2279)", "format": "functional"}, "[11]": {"target": "T4, Replicative DNA helicase DnaB (Mycobacterium tuberculosis, UniProt P9WMR3)", "T4 sequence (P9WMR3 whole entry)": "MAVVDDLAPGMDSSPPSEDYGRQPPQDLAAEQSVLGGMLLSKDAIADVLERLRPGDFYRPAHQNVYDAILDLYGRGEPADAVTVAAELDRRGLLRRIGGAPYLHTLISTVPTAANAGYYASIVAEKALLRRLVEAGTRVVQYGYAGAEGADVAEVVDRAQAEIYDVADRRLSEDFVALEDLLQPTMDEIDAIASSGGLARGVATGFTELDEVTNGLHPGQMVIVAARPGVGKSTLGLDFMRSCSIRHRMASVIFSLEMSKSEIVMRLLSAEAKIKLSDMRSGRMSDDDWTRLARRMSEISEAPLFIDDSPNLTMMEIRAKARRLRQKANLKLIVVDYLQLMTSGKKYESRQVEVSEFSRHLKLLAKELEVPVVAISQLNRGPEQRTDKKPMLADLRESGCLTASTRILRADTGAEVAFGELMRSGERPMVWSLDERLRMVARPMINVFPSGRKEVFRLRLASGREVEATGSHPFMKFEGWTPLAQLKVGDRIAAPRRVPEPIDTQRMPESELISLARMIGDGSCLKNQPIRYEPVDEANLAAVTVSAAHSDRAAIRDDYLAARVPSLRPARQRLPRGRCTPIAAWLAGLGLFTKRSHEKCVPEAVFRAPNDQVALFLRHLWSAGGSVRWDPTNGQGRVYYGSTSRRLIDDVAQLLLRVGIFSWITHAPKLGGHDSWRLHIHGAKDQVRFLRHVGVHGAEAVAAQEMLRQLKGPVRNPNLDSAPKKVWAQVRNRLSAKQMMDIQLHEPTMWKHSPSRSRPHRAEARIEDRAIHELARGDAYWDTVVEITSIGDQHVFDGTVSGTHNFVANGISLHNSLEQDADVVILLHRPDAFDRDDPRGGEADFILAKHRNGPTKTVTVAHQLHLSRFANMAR", "assay": "DnaB intein splicing inhibitors, dose response, biochemical, cell-free fluorescence (AID 449749)", "format": "functional"}, "Prothrombin": {"target": "Prothrombin (Bos taurus, UniProt P00735)", "assay": "thrombin protease inhibitors – biochemical, fluorescence polarization, uHTS hits, dose response (AID 602369)", "format": "functional"}},
  "note": "The source made the active and inactive calls.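 Throughout, for CC50: cells exposed to compound for 72 hours before luminescence readout.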",
  "data": [
    {"smiles": "COc1ccc(Cn2c(C3CC3)nc3ccc(NC(=O)C4CC4)cc3c2=O)cc1", "values": [
      {"measurement": "IC50", "setting": "Coagulation factor XII [1]", "result": "> 50 µM (inactive)"},
      {"measurement": "EC50", "setting": "H4", "result": "0.679 µM (active)"}
    ]},
    {"smiles": "O=C(c1ccc2c(c1)OCO2)N1CCN(c2ccc(F)cc2)CC1", "values": [
      {"measurement": "IC50", "setting": "Coagulation factor XII [2]", "result": "> 50 µM (inactive)"}
    ]},
    {"smiles": "O=C1NC(=S)N(C2CCCCC2)C(=O)/C1=C/NNC(=O)c1ccccc1O", "values": [
      {"measurement": "EC50", "setting": "Streptococcus", "result": "2.18 µM (active)"},
      {"measurement": "IC50", "setting": "[3]", "result": "> 100 µM (inactive)"},
      {"measurement": "IC50", "setting": "Fatty acid synthase [4]", "result": "31.1 µM (inactive)"},
      {"measurement": "CC50", "setting": "[5]", "result": "31.2 µM (active)"},
      {"measurement": "EC50", "setting": "[6]", "result": "0.725 µM (active)"},
      {"measurement": "IC50", "setting": "[7]", "result": "17.7 µM (active)"},
      {"measurement": "EC50", "setting": "Protein RecA", "result": "4.6 µM (active)"},
      {"measurement": "IC50", "setting": "Fatty acid synthase [8]", "result": "18.2 µM (active)"},
      {"measurement": "IC50", "setting": "[9]", "result": "36.7 µM (active)"},
      {"measurement": "IC50", "setting": "[10]", "result": "33.7 µM (active)"},
      {"measurement": "AC50", "setting": "[11]", "result": "3.25 µM (active)"},
      {"measurement": "IC50", "setting": "Prothrombin", "result": "93.6 µM (active)"}
    ]}
  ]
}
